Source: patent US20210154208A1, “Method to Identify Agents That Can Overcome Inhibition Caused By Drug-protein Binding of the Human Plasma Protein, Alpha-1-acid Glycoprotein” (The Johns Hopkins University, priority 2019, published 2021)

What was measured:
[1] = tested on: FLT3; assay: Western blot of FLT3 autophosphorylation and downstream signaling; type: cell-based, human
Experimental: Cells in logarithmic growth are resuspended in either plasma or RPMI 1640 media supplemented with either 10% FBS serum or physiologic concentrations of purified plasma proteins. The cells are cultured for 1 hour at 37° C. in the presence of drug(s) with intermittent shaking. The cells are then washed, lysed with RIPA buffer (Sigma) per manufacturer's protocol, and total cell lysates separated by sodium dodecyl sulfate polyacrylamide gel electrophoresis (Invitrogen) with Western transfer onto polyvinyl difluoride membranes (Millipore). The membranes are probed for FLT3 by using the S-18 antibody (Santa Cruz), or for other proteins using the indicated antibodies (Cell Signaling Technology), followed by horseradish peroxidase-conjugated goat anti-rabbit secondary antibodies with enhanced chemiluminescence detection (Bio-Rad).

[2] = tested on: MOLM-14 cells; assay: Modified PIA, MTT proliferation with purified human AGP; type: cell-based; conditions: for inhibition of TKI activity by purified human AGP: MOLM-14, purified human AGP at physiologic concentration (1 mg/mL), sub-physiologic also tested; for ability to displace TKI (TTT-3002, CEP-701) from AGP: MOLM-14, AGP 1.0 mg/mL, increasing doses of competitor, FIG. 13
Experimental: (§1) In the original plasma inhibitory assay (PIA), FLT3/ITD-expressing cells are co-incubated with plasma samples from patients receiving a FLT3 TKI, and Western blotting analysis of FLT3 auto-phosphorylation is used to measure the extent of FLT3 inhibitory activity present in their plasma.(9) This can then be compared to total plasma drug levels to determine the relative efficacy of a drug in vivo compared to its activity in vitro. […] To model these effects in the pre-clinical setting, we modified the PIA assay. Whereas the PIA was designed to assess in vivo drug activity with regards to a specific target (e.g.: inhibition of FLT3 auto-phosphorylation by TKI), the modified PIA is similarly cell-based, but measures the clinically relevant biological end-points of cytotoxicity and proliferation inhibition, instead of target inhibition. In the modified assay, FLT3/ITD cell lines are cultured in the presence of human plasma or purified human plasma proteins and treated with a range of concentrations of the drug of interest. […] Furthermore, like the original PIA, Western blot analysis can be performed on cells treated in this manner to study specific pathways of interest (FIG. 1B). […] The modified PIA utilizes the general endpoint of cytotoxicity.
(§2) Where Δ is the fold-change in IC50, KA is the drug-protein association constant, P0 is the total protein concentration and PA is the drug-bound protein concentration. From this relationship, in the absence of other drug-protein interactions, fold-change is linearly related to drug-free protein concentration. […] When the analysis also takes into account drug-bound protein, these curves can be used to directly measure KA. To that end, we performed the modified PIA using purified AGP against the staurosporine-derived FLT3 TKI, using MOLM-14 cells (FIG. 4A). For comparison, we also assayed the anti-proliferative effects of non-specific protein kinase C inhibition by staurosporine itself in HL-60 cells (FLT3 wild-type AML).
(§3) Cells in logarithmic growth are resuspended in either human plasma or serum-free RPMI 1640 media supplemented with the plasma protein of interest and seeded in 96-well format at 50 μL per well. Cell density is 2×10^5 cells per well for MOLM-14 and Ba/F3-FLT3/ITD cells. To each well 50 μL of 2× drug dilution in RPMI 1640 media with 10% serum was added. Each condition is plated in quadruplicate. The cells are then incubated at 37° C. After 44 hours of treatment, 10 μL of 5 mg/mL thiazolyl blue tetrazolium bromide (MTT, Sigma) in PBS, sterile-filtered, is added to each well, and the plates are incubated for an additional 4 hours at 37° C. 100 of 10% sodium dodecyl sulfate (JT Baker) in 10 mM hydrochloric acid (Fisher) is then added to each well, and the plates are incubated at 37° C. overnight. Optical absorbance at 570 nm is measured via plate reader (iMark, Bio-Rad), averaging across technical replicates.

[3] = tested on: MOLM-14 cells; assay: Modified plasma inhibition assay (PIA), MTT proliferation in 50% human plasma; type: cell-based; conditions: MOLM-14, 48 hours; for fold inhibition (increase in IC50) in the presence of 50% human plasma: MTT, 50% human plasma vs 10% FBS
Experimental: as §1
as §3, with “100 of 10% sodium dodecyl sulfate (JT Baker) in 10 mM hydrochloric acid (Fisher) is then added to each well, and the plates are incubated at 37° C. overnight.” left out

[4] = tested on: HL-60 cells; assay: Modified PIA with purified AGP, anti-proliferative effect of staurosporine; type: cell-based, human; conditions: HL-60 cells (FLT3 wild-type AML)
Excerpt: as §2
Cells in logarithmic growth are resuspended in either human plasma or serum-free RPMI 1640 media supplemented with the plasma protein of interest and seeded in 96-well format at 50 μL per well. Cell density is 2×10^5 cells per well for MOLM-14 and Ba/F3-FLT3/ITD cells. To each well 50 μL of 2× drug dilution in RPMI 1640 media with 10% serum was added. Each condition is plated in quadruplicate. The cells are then incubated at 37° C. […] Optical absorbance at 570 nm is measured via plate reader (iMark, Bio-Rad), averaging across technical replicates.

[5] = tested on: Ba/F3-FLT3/ITD-Luc cells; assay: Ba/F3-FLT3/ITD-Luc engrafted mouse model with human AGP, bioluminescent imaging; type: in vivo, BALB/c mice; conditions: mifepristone by oral gavage during treatment, imaged day 9
Experimental: We transplanted sublethally-irradiated BALB/c mice with Ba/F3-FLT3/ITD-Luc cells (Ba/F3 cells expressing both FLT3/ITD and a luciferase reporter). […] Twenty-four hours after the final treatment (day 9), the mice were again imaged to assess response (FIG. 8C).
BALB/c mice were transplanted after 300 cGy of sublethal X-ray irradiation using a CIXD irradiator (Xstrahl). 5×10^5 Ba/F3-FLT3/ITD-Luc cells were injected via tail vein. Intraperitoneal injections were performed using PBS vehicle with human AGP (Sigma) at 20 mg/mL. […] Mifepristone (Sigma) was dissolved in 50% ethanol and 50% (2-hydroxypropyl)-□-cyclodextrin (Sigma) and administered by oral gavage every 48 hours. Mice were imaged by intraperitoneal injection of luciferin (3 mg) and visualizing on an IVIS Spectrum imager (Caliper LifeSciences) using Living Image software for analysis on day 5 (to monitor engraftment) and on day 9 (to assess drug effect).

[6] = biological target: AGP (Homo sapiens, UniProt P02763); conditions: reported value; cited from earlier work
Chain of AGP (P02763 19-201): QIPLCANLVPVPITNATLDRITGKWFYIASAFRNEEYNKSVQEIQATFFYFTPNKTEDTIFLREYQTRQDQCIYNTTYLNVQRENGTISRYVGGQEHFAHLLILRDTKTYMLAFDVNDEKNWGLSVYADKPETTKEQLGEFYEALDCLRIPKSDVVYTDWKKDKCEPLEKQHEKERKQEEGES

For `CNC(=O)[C@@]1(N)C[C@H]2O[C@]1(C)n1c3ccccc3c3c4c(c5c6ccccc6n2c5c31)C(=O)NC4` [TTT-3002], the “inhibition of FLT3 phosphorylation in the presence of human plasma” value ([1]; MOLM-14, 1 hour, TKI 10 nM and 100 nM, human plasma) was “significant decrease in inhibition of FLT3 phosphorylation”, the “fold inhibition by AGP (fold-change in IC50)” value ([2]; MOLM-14, purified AGP at physiologic concentrations) was 30 fold and the “inhibition of TKI activity by purified human AGP” value (from here on “inhibition of TKI activity”) [2] was “comparable inhibition to that observed with human plasma”. The “effect of human plasma on IC50” value ([3]; 50% human plasma vs 10% fetal bovine serum) was “significantly increased the IC50” and the “fold inhibition (increase in IC50) in the presence of 50% human plasma” value [3] was 9 fold.

With `CC(C)(C)c1cc(NC(=O)Nc2ccc(-c3cn4c(n3)sc3cc(OCCN5CCOCC5)ccc34)cc2)no1` [quizartinib] the “inhibition of TKI activity” value [2] was “not significant inhibited” and the “fold inhibition (increase in IC50) in the presence of 50% human plasma” value [3] was 37 fold.

In the case of `CNC(=O)c1cc(Oc2ccc(NC(=O)Nc3ccc(Cl)c(C(F)(F)F)c3)cc2)ccn1` [sorafenib], the “inhibition of TKI activity” value [2] is reported as “not significant inhibited”.

For `O=C1CCC(N2C(=O)c3ccccc3C2=O)C(=O)N1` (centres unmarked) [thalidomide], the “ability to displace TKI (TTT-3002, CEP-701) from AGP” value [2] was “cannot displace the more tightly-bound TKI from AGP”.

For `C[C@]12O[C@H](C[C@]1(O)CO)n1c3ccccc3c3c4c(c5c6ccccc6n2c5c31)CNC4=O` [lestaurtinib], the “fold inhibition by AGP, predicted” value ([2]; MOLM-14, purified AGP at physiologic concentrations, predicted) was greater than 1000 fold and the “shift in IC50 with human AGP” value ([2]; human AGP) was 500 fold.

For `CN[C@@H]1C[C@H]2O[C@@](C)([C@@H]1OC)n1c3ccccc3c3c4c(c5c6ccccc6n2c5c31)C(=O)NC4` [staurosporine], the “anti-proliferative activity in the presence of AGP” value [4] was “no appreciable activity in the presence of AGP until saturating concentrations of drug were used”.

In the case of `CN(C)CCC=C1c2ccccc2CCc2ccccc21` [amitriptyline], the “ability to displace TKI (TTT-3002, CEP-701) from AGP” value [2] is reported as “cannot displace the more tightly-bound TKI from AGP”.

In the case of `CC#C[C@]1(O)CC[C@H]2[C@@H]3CCC4=CC(=O)CCC4=C3[C@@H](c3ccc(N(C)C)cc3)C[C@@]21C` [mifepristone], the “restoration of FLT3 inhibition by TTT-3002 in the presence of AGP” value ([1]; MOLM-14, TTT-3002 (2 nM), inhibiting AGP, increasing mifepristone) is reported as “dose-dependent restoration of FLT3 inhibition”, the “effect of agent alone on FLT3 autophosphorylation or downstream signaling” value ([1]; MOLM-14, mifepristone alone) is reported as “no effect” and the “response of FLT3/ITD-expressing cells (bioluminescence), mifepristone added to midostaurin/AGP” value [5] is reported as “regression of the transplanted cells at levels comparable to those of the midostaurin alone treated mice”. The “effect of agent alone on cell growth” value ([2]; MOLM-14, concentrations of maximal disinhibiting effect) was “no appreciable effect on cell growth”, the “effect on TTT-3002 dose-response curve in the presence of purified AGP” value ([2]; MOLM-14, increasing concentrations of mifepristone, TTT-3002 plus AGP) was “dose-response curve shifted back to that seen in the absence of AGP” and the “effect on TTT-3002 dose-response curves in the absence of AGP” value ([2]; MOLM-14, no AGP) was “no impact”. The “KA (association constant with AGP)” value [6] was 7 to 8 µM⁻¹.
